Results on 3 substances are retold here after US7645740B2, “Peptide sequence found in Laminin 5 for treating skin impairments” (Laboratoires d'Anjou Centre National de la Recherche …, priority 2004, dated 2010).

In experiment [1] the test system is NHKs. Nature of the experiment: Cell adhesion of NHKs to laminin 5 and collagen IV substrates. Particulars: 0 to 2 micrograms per well, 5×10^4 NHKs per well, 1 hour 37° C. It counts as cell-based, human. The method, then: (A) Diagrammatic representation of laminin 5 and collagen IV in the dermo-epidermal junction (DEJ). (B) Dose-dependent cell adhesion of NHKS to laminin 5 and collagen IV. laminin 5 and collagen IV were fixed to 96-well plates in the quantities given on the abscissa. 5×10^4 NHKs were deposited in each well and plates were incubated at 37° C. for 1 hour. After washing, attached cells were fixed and cell adhesion was measured as described in the methodology section.
(§1) A decreasing range of LN5 (prepared in the laboratory) and COL4 (BD Biosciences, Le Pont de Claix, France) quantities was made up by successive dilution in PBS. These solutions were immediately distributed into a 96-well culture plate (Costar) at a rate of 100 μl per well. The experiment was conducted in exactly the same way as the experiment described in example 2. The results are given in the form of a graph with the absorbance values representing adhesion on the ordinate and the various substrate concentrations on the abscissa. Attached cells were photographed by phase contrast microscopy.

The test system of experiment [2] is HT1080 cells (human fibrosarcoma). Nature of the experiment: Cell adhesion test to immobilized peptides, HT1080. The class given is cell-based. The settings on record: HT1080, 0 to 10 micrograms immobilized peptide, 8×10^4 cells per well, 1 hour 37° C., absorbance 570 nm. The method, then:
Dose-dependent cell adhesion of cell line HT1080 to various peptides 1, 2 and 3. The peptides were immobilized in 96-well plates at the concentrations given on the abscissa. 8×10^4 cells were deposited in each well and plates were incubated at 37° C. for 1 hour. After washing, attached cells were fixed and cell adhesion was measured as described in the methodology section.
Dose-dependent cell adhesion of HT1080 cells to various peptide TALRIRATYGEY (SEQ ID NO. 1). The peptides were immobilized in 96-well plates in the quantities given on the abscissa. 8×10^4 cells and 15×10^4 cells were deposited in each well and plates were incubated at 37° C. for 1 hour. After washing, attached cells were fixed and cell adhesion was measured as described in the methodology section. Cells were observed by phase contrast microscopy then photographed. Bar =50 μm
(§2) Peptides 1, 2 and 3 were used for the cell adhesion experiments. A range of 7 decreasing concentrations (100 micrograms/ml, 50 micrograms/ml, 25 micrograms/ml, 12.5 micrograms/ml, 6.25 micrograms/ml, 3.125 micrograms/ml and 1.562 micrograms/ml) was made up by successive dilution in PBS (Phosphate Buffer Saline, KH2PO4 1.54 mM; Na2HPO4 1.42 mM; NaCl-131 mM) using a starting solution at a concentration of 1 mg/ml. These solutions were immediately distributed onto a 96-well culture plate (Greinher, Dutscher, Brumath, France) at a rate of 100 μl per well. Plates were then placed at +4° C. for 16 to 18 hours. The solutions were then removed by turning the plates and each well was saturated with a 1% PBS-BSA solution (bovine serum albumin). Three additional wells without the substrate underwent the same treatment and were used as blanks.
(§3) Epithelial cells were detached from the culture dishes using a trypsin/EDAT solution (0.05-0.02%) then suspended in DMEM medium without additives for the cell lines and in KBM-2 without additive for human keratinocytes. The number of seeded cells per well is given in the graphs (50,000 to 100,000 cells per well).
(§4) After cell seeding, the multi-well plates were placed in an incubator at 37° C. under 5% CO2. After incubation for 30 to 60 minutes, cells were observed under a phase contrast microscope in order to verify that the test was conducted correctly. The adhesion medium was then removed and each well was washed in a sterile PBS solution to remove non-adhering cells. The remaining cells, attached to the substrate, were then fixed using a solution of 1% glutaraldehyde in PBS for 15 minutes. The glutaraldehyde solution as removed and the cells were stained with a crystal violet solution diluted to 1% in distilled water for 30 minutes.
After rinsing in water several times, cells were permeabilized by means of a 0.02% triton solution for 15 minutes in order to solubilize the crystal violet. Absorbances were read at 570 nm using an ELISA plate reader (MR500, Dynatech, Guernsey, Channel Islands). Each experimental point was carried out in triplicate. The blank value represented the mean absorbance of 3 control wells (BSA). […] We then calculated the mean for the three absorbance values for each of the triplicate samples.
The results are presented in the form of a graph with the absorbance values on the ordinate and the various substrate concentrations on the abscissa. […]
A second approach was taken in order to determine the minimum quantity of active peptide and the number of adhering cells was increased in order to obtain a confluent cell network. […]

Experiment [3] concerns normal human keratinocytes. The experiment can be described thus: Cell adhesion test to immobilized peptides, normal human keratinocytes. The settings on record: 0 to 10 micrograms immobilized peptide, 10^5 cells per well, 1 hour 37° C., absorbance 570 nm. It counts as cell-based. On the procedure:
Dose-dependent cell adhesion of normal human keratinocytes to various peptides 1, 2 and 3. The peptides were immobilized in 96-well plates at the concentrations given on the abscissa. 10^5 cells were deposited in each well and plates were incubated at 37° C. for 1 hour. After washing, attached cells were fixed and cell adhesion was measured as described in the methodology section.
as §2, §3, §4
(§5) After rinsing in water several times, cells were permeabilized by means of a 0.02% triton solution for 15 minutes in order to solubilize the crystal violet. Absorbances were read at 570 nm using an ELISA plate reader (MR500, Dynatech, Guernsey, Channel Islands). Each experimental point was carried out in triplicate. The blank value represented the mean absorbance of 3 control wells (BSA). This was subtracted from each of the optical density values for the experimental points. We then calculated the mean for the three absorbance values for each of the triplicate samples.
(§6) The results are presented in the form of a graph with the absorbance values on the ordinate and the various substrate concentrations on the abscissa. Attached cells were photographed by phase contrast microscopy.
Freshly isolated normal human keratinocytes were used in a second experiment. As the basal keratinocytes of the epidermis are in direct contact with LN-5 in the skin, it was necessary to test their adhesion capacity to the peptide in question. Human keratinocytes were obtained from a foreskin biopsy (surgery waste, Pavillon T-Bis, Eduard Herriot Hospital). […]

Experiment [4] relates to HBL100 cells (human mammary epithelium). Nature of the experiment: Cell adhesion test to immobilized peptides, HBL100. The class given is cell-based. Particulars: HBL100, 0 to 10 micrograms immobilized peptide, 8×10^4 cells per well, 1 hour 37° C., absorbance 570 nm. The method, then: Dose-dependent cell adhesion of cell line HBL100 to various peptides 1, 2 and 3. The peptides were immobilized in 96-well plates at the concentrations given on the abscissa. 8×10^4 cells were deposited in each well and plates were incubated at 37° C. for 1 hour. After washing, attached cells were fixed and cell adhesion was measured as described in the methodology section.
as §2, §3, §4, §5, §6
(§7) The following cells from epithelial cell lines were used initially (commonly used in preliminary studies on cell adhesion): • line HT1080 cells (human fibrosarcoma), American Type Culture Collection CCL-121. • line HB100 cells (human mammary epithelium), American Type Culture Collection HTB-124. • line A431 cells (skin epitheliods), American Type Culture Collection CRL-1555.

The test system of experiment [5] is A431 cells (skin epitheloids). Nature of the experiment: Cell adhesion test to immobilized peptides, A431. The settings on record: A431, 0 to 10 micrograms immobilized peptide, 8×10^4 cells per well, 1 hour 37° C., absorbance 570 nm. It counts as cell-based. On the procedure:
Dose-dependent cell adhesion of cell line A431 to various peptides 1, 2 and 3. The peptides were immobilized in 96-well plates at the concentrations given on the abscissa. 8×10^4 cells were deposited in each well and plates were incubated at 37° C. for 1 hour. After washing, attached cells were fixed and cell adhesion was measured as described in the methodology section.
as §2, §3, §4, §5, §6, §7

The test system of experiment [6] is NHKs. Nature of the experiment: Cell adhesion of NHKs to peptides co-immobilized with laminin 5. It counts as cell-based, human. Particulars: laminin 5 fixed quantity 0.2 mg, 50,000 cells per well, percentage of LN5 alone. On the procedure:
Peptides 1, 2 and 3 (variable quantities indicated) and laminin 5 (fixed quantity 0.2 mg) were co-immobilized in 96-well plates. 5×104 NHKs were deposited in each well and plates were incubated at 37° C. for 1 hour. After washing, attached cells were fixed and cell adhesion was measured as described in the methodology section. Cell adhesion in the presence of the peptide is given as a percentage of cell adhesion obtained with laminin 5 alone. Cells were observed by phase contrast microscopy then photographed. Bar=50 μm.
as §1
In order to analyse the effect of the peptide on cell adhesion to DEJ proteins, peptide TALRIRATYGEY (SEQ ID NO.1) (peptide 1) was co-immobilized with LN5 (FIG. 14) and COL4 (FIG. 15). The fixed quantity of matrix protein (LN5 and COL4) and the variable quantity of peptide are given on the graph (FIGS. 14 and 15). Peptides 2 and 3 (described in example 1) were used as controls for the experiment. The adhesion tests were carried out with NHK under the same conditions as the experiment given in FIG. 13 (50,000 cells per well). A peptide-free control representing 100% adhesion (LN5 only and COL4 only) was used to allow analysis of the effect of adhesion relating to the presence of the peptide. The results are given as a percentage of this control.

For “LN5: laminin 5, dermo-epidermal junction glycoprotein, prepared in the laboratory, used as adhesion substrate”, the “adhesion of NHKs to substrate protein” value in experiment [1] was “much better substrate”.
Regarding “GLTKTYTFRLNE (Human laminin 5) [Peptide 2, control peptide from the gamma 2 chain of laminin 5, position 309-321, reference compound]”, the “cell adhesion to immobilized peptide” value in experiment [2], in experiment [3], in experiment [4] and in experiment [5] was “did not lead to any adhesion” each time. Also, in experiment [6], the “effect on adhesion of NHKs to LN5 (co-immobilized)” value was “do not modify adhesion”.
In the case of “DVKNLENIRDNL (Human laminin 5) [Peptide 3, control peptide from the terminal carboxy end of the gamma 2 chain of laminin 5, position 1169-1180, reference compound]”, the “cell adhesion to immobilized peptide” value in experiment [2], in experiment [3], in experiment [4] and in experiment [5] was “did not lead to any adhesion” each time. Also, the “effect on adhesion of NHKs to LN5 (co-immobilized)” value in experiment [6] is recorded as “do not modify adhesion”.
